Converted amounts (≈) assume the structure as drawn. Counter-ions that a name gives are not always drawn. Like-named read-outs stand apart in the source and are kept apart here.
Columns and labels:
[1] = system: Clostridium perfringens 194; assay: microbe, parasite or virus in culture; assay type: cell-based
[2] = system: Proteus mirabilis 774; assay: Antibiotic activity in vitro, agar dilution method (MIC); assay type: cell-based; conditions: DST agar
[3] = system: Proteus rettgeri 856; assay: as above; assay type: cell-based; conditions: Providencia rettgeri, DST agar
[4] = system: Bacteroides fragilis LO 1; assay: as above; assay type: cell-based; conditions: LO1, DST agar
[5] = system: Streptococcus pyogenes Aronson; assay: as above; assay type: cell-based; conditions: DST agar
[6] = system: Staphylococcus aureus 10B; assay: Chemotherapeutic activity in vivo against systemic infection in mice (ED50); conditions: systemic infection in female SPF MF2 mice
Description: (§1) B. Die chemotherapeutische Wirksamkeit in vivo gegen systemische Infektionen in weiblichen SPF, MF2 Mäusen wurde nach der Methode von Zak., 0., et al., 1979, Drugs Exptl. Clin. Res. 5, 45-59, ermittelt. Die gefundenen ED50-Werte in Milligramm Substanz pro Kilogramm Maus (mg/kg) für eine Anzahl von Mikroorganismen werden für die subcutan (s.c.) applizierten Testverbindungen in der Tabelle 2 angegeben.

[7] = system: Escherichia coli 205; assay: as above; conditions: s.c., systemic infection in female SPF MF2 mice
Description: as §1

[8] = system: Neisseria meningitidis 1316; assay: Antibiotic activity in vitro, agar dilution method (MIC); assay type: cell-based; conditions: DST agar
[9] = system: Staphylococcus aureus 2999i^+p^+; assay: as above; assay type: cell-based; conditions: DST agar
[10] = system: Serratia marcescens 344; assay: as above; assay type: cell-based; conditions: DST agar
[11] = system: Escherichia coli 205; assay: as above; assay type: cell-based; conditions: DST agar
[12] = system: Pseudomonas aeruginosa ATCC 12055; assay: as above; assay type: cell-based; conditions: ATCC12055, DST agar
[13] = system: Haemophilus influenzae NCTC 4560; assay: as above; assay type: cell-based; conditions: DST agar
[14] = system: Klebsiella pneumoniae 327; assay: as above; assay type: cell-based; conditions: DST agar
[15] = system: Proteus morganii 2359; assay: Chemotherapeutic activity in vivo against systemic infection in mice (ED50); conditions: Morganella morganii, sc, systemic infection in female SPF MF2 mice
Description: as §1

[16] = Proteus mirabilis, 774, agar dilution, read-out: MIC
[17] = Staphylococcus aureus, read-out: MIC
[18] = Escherichia coli, 205, agar dilution, read-out: MIC
[19] = Haemophilus influenzae, NCTC4560, agar dilution, read-out: MIC
[20] = Klebsiella pneumoniae, 327, agar dilution, read-out: MIC
[21] = Escherichia coli, 205, sc, read-out: ED50
[22] = Neisseria meningitidis, 1316, agar dilution, read-out: MIC
[23] = Staphylococcus aureus, 10B, sc, read-out: ED50
[24] = Serratia marcescens, 344, agar dilution, read-out: MIC

| SMILES | MIC [1] | MIC [2, 16] | MIC [3] | MIC [4] | MIC [5] | MIC [9, 17] | MIC [11, 18] | MIC [12] | MIC [13, 19] | MIC [14, 20] | ED50 [15] | ED50 [7, 21] | MIC [8, 22] | ED50 [6, 23] | MIC [10, 24] | also measured |
| --- | --- | --- | --- | --- | --- | --- | --- | --- | --- | --- | --- | --- | --- | --- | --- | --- |
| CO/N=C(\C(=O)N[C@@H]1C(=O)N2C(C(=O)O)=C(COC(C)=O)CS[C@H]12)c1nc(N)n(C)n1 [Beispiel 2, 7β-[2-(5-Amino-1-methyl-1H-1,2,4-triazol-3-yl)-2-Z-methoxyimino-acetamino]-3-acetoxymethyl-3-cephem-4-carbonsäure-hydrochlorid] | 0.5 µg/mL | 0.05 µg/mL | 0.01 µg/mL | 8 µg/mL | 0.5 µg/mL | 8 µg/mL | 0.1 µg/mL | 128 µg/mL | 1 µg/mL | 0.1 µg/mL |  |  |  |  |  | ED50 ([6]; s.c.): 10 mg/kg; ED50 [7]: 1 mg/kg; MIC ([8]; agar dilution): 0,02 µg/ml; MIC ([10]; agar dilution): 1 µg/mL |
| CC(=O)OCC1=C(C(=O)O)N2C(=O)[C@@H](NC(=O)Cc3nc(N)n(C)n3)[C@H]2SC1 [Testverbindung 1, 7β-[2-(5-Amino-1-methyl-1H-1,2,4-triazol-3-yl)-acetamino]-3-acetoxymethyl-3-cephem-4-carbonsäure] | 16 µg/mL (≈ 39 µM) | 128 µg/mL (≈ 312 µM) | 32 µg/mL (≈ 78 µM) |  | 1 µg/mL (≈ 2.44 µM) | 8 µg/mL (≈ 19.5 µM) | 32 µg/mL (≈ 78 µM) |  | 4 µg/mL (≈ 9.75 µM) | 16 µg/mL (≈ 39 µM) | > 30 mg/kg | > 30 mg/kg | 2 µg/mL (≈ 4.87 µM) |  |  |  |
| CO/N=C(\C(=O)N[C@@H]1C(=O)N2C(C(=O)O)=C(COC(C)=O)CS[C@H]12)c1nc(N)n(C)n1 [Testverbindung 2, 7ß-[2-(5-Amino-l-methyl-lH-l,2,4-triazol-3-yl)-2-Z-methoxy-imino-acetamino]-3-acetoxymethyl-3-cephem-4-carbonsäure] |  |  |  |  |  |  |  |  |  |  | > 30 mg/kg |  |  |  |  | MIC ([2]; agar dilution, listed as 3): 0,1 µg/ml; ED50 ([6]; s.c., listed as 3): >30 mg/kg; ED50 ([7]; listed as 3): 0,4 mg/kg; MIC ([8]; agar dilution, listed as 3): 0,1 µg/ml; MIC ([9]; listed as 3): 4 µg/mL (≈ 8.82 µM); MIC ([10]; agar dilution, listed as 3): 0,1 µg/ml; MIC ([11]; agar dilution, listed as 3): 0,05 µg/ml; MIC ([13]; agar dilution, listed as 3): 0,5 µg/ml; MIC ([14]; agar dilution, listed as 3): 0,05 µg/ml |
| CO/N=C(\C(=O)N[C@@H]1C(=O)N2C(C(=O)O)=C(CSc3nnnn3C)CS[C@H]12)c1nc(N)n(C)n1 [Testverbindung 3, 7β-[2-(5-Amino-1-methyl-1H-1,2,4-triazol-3-yl)-2-Z-methoxyimino-acetamino]-3-(1-methyltetrazol-5-yl-thiomethyl)-3-cephem-4-carbonsäure] | 0.2 µg/mL (≈ 0.393 µM) | 0.2 µg/mL (≈ 0.393 µM) | 0.1 µg/mL (≈ 0.196 µM) | 16 µg/mL (≈ 31.4 µM) | 1 µg/mL (≈ 1.96 µM) | 8 µg/mL (≈ 15.7 µM) | 0.2 µg/mL (≈ 0.393 µM) | 1 µg/mL (≈ 1.96 µM) | 8 µg/mL (≈ 15.7 µM) | 0.2 µg/mL (≈ 0.393 µM) | 50 mg/kg | 1.7 mg/kg | 0.5 µg/mL (≈ 0.981 µM) | 28 mg/kg | 0.5 µg/mL (≈ 0.981 µM) |  |
| CO/N=C(\C(=O)N[C@@H]1C(=O)N2C(C(=O)[O-])=C(C[n+]3ccc(C(N)=O)cc3)CS[C@H]12)c1nc(N)n(C)n1 [Testverbindung 4, 7β-[2-(5-Amino-1-methyl-1H-1,2,4-triazol-3-yl)-2-Z-methoxyimino-acetamino]-3-(4-carbamoylpyridiniomethyl)-3-cephem-4-carboxylat] | 8 µg/mL (≈ 15.5 µM) | 0.1 µg/mL (≈ 0.194 µM) | 0.02 µg/mL (≈ 0.0388 µM) | 4 µg/mL (≈ 7.76 µM) | 32 µg/mL (≈ 62.1 µM) | 32 µg/mL (≈ 62.1 µM) | 0.1 µg/mL (≈ 0.194 µM) |  | 2 µg/mL (≈ 3.88 µM) | 0.1 µg/mL (≈ 0.194 µM) |  | 2.5 mg/kg | 0.5 µg/mL (≈ 0.97 µM) |  | 0.5 µg/mL (≈ 0.97 µM) |  |
| CO/N=C(\C(=O)N[C@@H]1C(=O)N2C(C(=O)[O-])=C(C[n+]3ccc(C(N)=O)cc3)CS[C@H]12)c1nc(N=CN(C)C)n(C)n1 [Testverbindung 5] | 2 µg/mL (≈ 3.51 µM) | 32 µg/mL (≈ 56.1 µM) | 8 µg/mL (≈ 14 µM) | 32 µg/mL (≈ 56.1 µM) | 0.5 µg/mL (≈ 0.876 µM) | 8 µg/mL (≈ 14 µM) | 32 µg/mL (≈ 56.1 µM) | 128 µg/mL (≈ 224 µM) | 128 µg/mL (≈ 224 µM) | 32 µg/mL (≈ 56.1 µM) | 70 mg/kg | > 30 mg/kg | 8 µg/mL (≈ 14 µM) | 55 mg/kg | 128 µg/mL (≈ 224 µM) |  |
